Results reported in patent US20130274228A1, “CONCOMITANT DRUG FOR IMPROVING COGNITIVE FUNCTION” (Nishizaki Bioinformation Research Institute, priority 2010, published 2013).

Tested on: normal rats
Experiment: Water maze test (acquisition latency)
Type: in vivo, rat
Settings: oral, every day from 7 days before and during the test, male Wister rats
Experimental: Male Wister rats (7-weeks-old) were used for a water maze test. A circular plastic water tank (diameter 180 cm, depth 45 cm) was used. The inside of the water tank was completely painted in black, and dark water with India ink was filled up to 25 cm from the bottom (22° C.). A platform (diameter 11 cm) painted in black was placed in water such that it was 1 cm below the water surface. The water tank was placed in a test room, and several marks seen by the rat from the water tank were put thereon. During the test, the position of the marks was not changed. A platform was placed a predetermined position from the equal distance from the center and the end of the water tank, namely, center of one quadrant. At one of the randomly selected 5 points, the rat was released facing the wall of the water tank, and the time necessary for evacuating on the platform (acquisition latency) was measured. When smoothly evacuated, the rat was left on the platform for 10 seconds. From 7 days before the water maze test and during the test, DLPC (5 mg/kg) alone, DLPC (10 mg/kg) alone, POPC (5 mg/kg) alone, POPC (10 mg/kg) alone, DLPC (5 mg/kg) and POPC (5 mg/kg), or PEG alone, each dissolved in polyethylene glycol (PEG), was orally administered every day. The water maze test m was performed twice a day, and the second test was started at 2 min after the first test. The test was continuously performed for 8 days, and the mean (±SEM) of acquisition latency of continuous 2 days until the rat reached the platform was calculated.
PEG, DLPC (5 mg/kg), DLPC (10 mg/kg), POPC (5 mg/kg), POPC (10 mg/kg) or DLPC (5 mg/kg) and POPC (5 mg/kg) was orally administered to rats every day during the water maze test from 7 days before the test.

| Compound | acquisition latency of the rat (single administration 5 mg/kg) | acquisition latency of the rat (single administration 10 mg/kg) |
| --- | --- | --- |
| CCCCCCCC/C=C\CCCCCCCC(=O)O[C@H](COC(=O)CCCCCCCCCCCCCCC)COP(=O)([O-])OCC[N+](C)(C)C [POPC, 1-palmitoyl-2-oleoyl-sn-glycero-3-phosphocholine] | did not show a remarkable effect | did not show a remarkable effect |
| CCCCC/C=C\C/C=C\CCCCCCCC(=O)OC[C@H](COP(=O)([O-])OCC[N+](C)(C)C)OC(=O)CCCCCCC/C=C\C/C=C\CCCCC [DLPC, 1,2-dilinoleoyl-sn-glycero-3-phosphocholine] | did not show a remarkable effect | did not show a remarkable effect |
